Reference: US12077503B2, “Substituted cyclic amides and their use as herbicides” (FMC CORPORATION, priority 2015, dated 2024)

How the values were obtained:
Type in all cases: in vivo
[1] = system: pigweed (Amaranthus retroflexus); experiment: Test A postemergence; conditions: Amaranthus retroflexus, post-emergence, 240 h, Postemergence, read-out: Pigweed plant response rating (0 to 100 scale); for pest or weed control at 125 g/ha: 125 g ai/ha, visual rating about 10 d after treatment; for pest or weed control at 31 g/ha: 31 g ai/ha, 0 is no effect, 100 is complete control
Procedure, shortened: (§1)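 In a loam soil and sand blend, planted seeds got a preemergence directed soil spray, and young plants at the one- to two-leaf stage, 2–10 cm high, got a postemergence application; ~10 d greenhouse hold; injury rated visually, 0 = none, 100 = complete control.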

Kochia (Kochia scoparia) [2] = experiment: Test A postemergence; conditions: Bassia scoparia, post-emergence, 240 h, Postemergence, read-out: Kochia plant response rating (0 to 100 scale); for pest or weed control at 125 g/ha: 125 g ai/ha, visual rating about 10 d after treatment; for pest or weed control at 31 g/ha: 31 g ai/ha, 0 is no effect, 100 is complete control
Procedure, shortened: as §1

[3] = system: giant foxtail (Setaria faberii); experiment: Test A postemergence; conditions: Setaria faberi, post-emergence, 240 h, Postemergence, read-out: Foxtail, Giant plant response rating (0 to 100 scale); for pest or weed control at 125 g/ha: 125 g ai/ha, visual rating about 10 d after treatment; for pest or weed control at 31 g/ha: 31 g ai/ha, 0 is no effect, 100 is complete control
Procedure, shortened: as §1

[4] = system: blackgrass (Alopecurus myosuroides); experiment: Test A postemergence; conditions: Alopecurus myosuroides, post-emergence, 240 h, Postemergence, read-out: Blackgrass plant response rating (0 to 100 scale); for pest or weed control at 125 g/ha: 125 g ai/ha, visual rating about 10 d after treatment; for pest or weed control at 31 g/ha: 31 g ai/ha, 0 is no effect, 100 is complete control
Procedure, shortened: as §1

[5] = system: wheat (Triticum aestivum); experiment: Test A postemergence; conditions: Triticum aestivum, post-emergence, 240 h, Postemergence, read-out: Wheat plant response rating (0 to 100 scale); for plant injury at 125 g/ha: 125 g ai/ha, visual rating about 10 d after treatment; for plant injury at 31 g/ha: 31 g ai/ha, 0 is no effect, 100 is complete control
Procedure, shortened: as §1

[6] = system: barnyardgrass (Echinochloa crus-galli); experiment: Test A postemergence; conditions: Echinochloa crus-galli, post-emergence, 240 h, Postemergence; for pest or weed control at 125 g/ha: 125 g ai/ha, visual rating about 10 d after treatment, read-out: Barnyardgrass plant response rating (0 to 100 scale, 0 no effect, 100 complete control); for pest or weed control at 31 g/ha: 31 g ai/ha, 0 is no effect, 100 is complete control, read-out: Barnyardgrass plant response rating (0 to 100 scale)
Procedure, shortened: as §1

[7] = system: Galium (catchweed bedstraw, Galium aparine); experiment: Test A postemergence; conditions: Galium, post-emergence, 240 h, Postemergence, read-out: Galium plant response rating (0 to 100 scale); for pest or weed control at 125 g/ha: 125 g ai/ha, visual rating about 10 d after treatment; for pest or weed control at 31 g/ha: 31 g ai/ha, 0 is no effect, 100 is complete control
Procedure, shortened: as §1

corn (Zea mays) = experiment: Test A postemergence; conditions: Zea mays, post-emergence, 240 h, Postemergence, read-out: Corn plant response rating (0 to 100 scale); for plant injury at 125 g/ha: 125 g ai/ha, visual rating about 10 d after treatment; for plant injury at 31 g/ha: 31 g ai/ha, 0 is no effect, 100 is complete control
Procedure, shortened: as §1

[8] = system: ragweed (common ragweed, Ambrosia elatior); experiment: Test A postemergence; conditions: Ambrosia artemisiifolia, post-emergence, 240 h, Postemergence, read-out: Ragweed plant response rating (0 to 100 scale); for pest or weed control at 125 g/ha: 125 g ai/ha, visual rating about 10 d after treatment; for pest or weed control at 31 g/ha: 31 g ai/ha, 0 is no effect, 100 is complete control
Procedure, shortened: as §1

[9] = system: ryegrass, Italian (Italian ryegrass, Lolium multiflorum); experiment: Test A postemergence; conditions: Lolium multiflorum, post-emergence, 240 h, Postemergence, read-out: Ryegrass, Italian plant response rating (0 to 100 scale); for pest or weed control at 125 g/ha: 125 g ai/ha, visual rating about 10 d after treatment; for pest or weed control at 31 g/ha: 31 g ai/ha, 0 is no effect, 100 is complete control
Procedure, shortened: as §1

[10] = system: ducksalad (Heteranthera limosa); experiment: Test B flooded paddy test; conditions: Heteranthera limosa, 360 h, Flood, 250 g ai/ha; visually evaluated after 13 to 15 d; read-out: Plant response rating, Ducksalad (0 to 100 scale where 0 is no effect and 100 is complete control)
Procedure, shortened: (§2)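 Flooding to 3 cm over soil accompanied treatment, which consisted of adding compound to the standing water around 2-leaf plants; depth was then maintained. Visual assessment versus controls followed at 13 to 15 d (scale 0–100, 0 meaning no effect).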

rice (Oryra sativa) = experiment: Test B flooded paddy test; conditions: Oryza sativa, 360 h, Flood, 250 g ai/ha; visually evaluated after 13 to 15 d; read-out: Plant response rating, Rice (0 to 100 scale where 0 is no effect and 100 is complete control)
Procedure, shortened: as §2

[11] = system: barnyardgrass (Echinochloa crus-galli); experiment: Test B flooded paddy test; conditions: Echinochloa crus-galli, 360 h, Flood, 250 g ai/ha; visually evaluated after 13 to 15 d; read-out: Plant response rating, Barnyardgrass (0 to 100 scale where 0 is no effect and 100 is complete control)
Procedure, shortened: as §2

[12] = system: sedge, umbrella (small-flower umbrella sedge, Cyperus difformis); experiment: Test B flooded paddy test; conditions: Cyperus difformis, 360 h, Flood, 250 g ai/ha; visually evaluated after 13 to 15 d; read-out: Plant response rating, Sedge, Umbrella (0 to 100 scale where 0 is no effect and 100 is complete control)
Procedure, shortened: as §2

[13] = system: pigweed (Amaranthus retroflexus); experiment: Test A preemergence; conditions: Amaranthus retroflexus, pre-emergence, 240 h, Preemergence; for pest or weed control at 31 g/ha: 31 g ai/ha, 0 to 100 scale where 0 is no effect and 100 is complete control, read-out: Pigweed plant response rating; for pest or weed control at 125 g/ha: 125 g ai/ha, 0 to 100 scale (0 no effect, 100 complete control), read-out: Plant response rating, Pigweed
Kochia (Kochia scoparia) [14] = experiment: Test A preemergence; conditions: Bassia scoparia, pre-emergence, 240 h, Preemergence; for pest or weed control at 31 g/ha: 31 g ai/ha, 0 to 100 scale where 0 is no effect and 100 is complete control, read-out: Kochia plant response rating; for pest or weed control at 125 g/ha: 125 g ai/ha, 0 to 100 scale (0 no effect, 100 complete control), read-out: Plant response rating, Kochia
Procedure, shortened: as §1

[15] = system: giant foxtail (Setaria faberii); experiment: Test A preemergence; conditions: Setaria faberi, pre-emergence, 240 h, Preemergence; for pest or weed control at 31 g/ha: 31 g ai/ha, 0 to 100 scale where 0 is no effect and 100 is complete control, read-out: Foxtail, Giant plant response rating; for pest or weed control at 125 g/ha: 125 g ai/ha, 0 to 100 scale (0 no effect, 100 complete control), read-out: Plant response rating, Foxtail, Giant
Procedure, shortened: as §1

[16] = system: barnyardgrass (Echinochloa crus-galli); experiment: Test A preemergence; conditions: Echinochloa crus-galli, pre-emergence, 240 h, Preemergence; for pest or weed control at 31 g/ha: 31 g ai/ha, 0 to 100 scale where 0 is no effect and 100 is complete control, read-out: Barnyardgrass plant response rating; for pest or weed control at 125 g/ha: 125 g ai/ha, 0 to 100 scale (0 no effect, 100 complete control), read-out: Plant response rating, Barnyardgrass
Procedure, shortened: as §1

[17] = system: ragweed (common ragweed, Ambrosia elatior); experiment: Test A preemergence; conditions: Ambrosia artemisiifolia, pre-emergence, 240 h, Preemergence; for pest or weed control at 31 g/ha: 31 g ai/ha, 0 to 100 scale where 0 is no effect and 100 is complete control, read-out: Ragweed plant response rating; for pest or weed control at 125 g/ha: 125 g ai/ha, 0 to 100 scale (0 no effect, 100 complete control), read-out: Plant response rating, Ragweed
Procedure, shortened: as §1

[18] = system: ryegrass, Italian (Italian ryegrass, Lolium multiflorum); experiment: Test A preemergence; conditions: Lolium multiflorum, pre-emergence, 240 h, Preemergence; for pest or weed control at 31 g/ha: 31 g ai/ha, 0 to 100 scale where 0 is no effect and 100 is complete control, read-out: Ryegrass, Italian plant response rating; for pest or weed control at 125 g/ha: 125 g ai/ha, 0 to 100 scale (0 no effect, 100 complete control), read-out: Plant response rating, Ryegrass, Italian
Procedure, shortened: as §1

SMILES: COc1c([C@H]2CN(C)C(=O)[C@@H]2C(=O)Nc2ccccc2SC)cccc1C(F)(F)F [Compound 1340]
- pest or weed control at 125 g/ha [1]: 0%
- pest or weed control at 31 g/ha [1]: 0%
- pest or weed control at 125 g/ha (Kochia (Kochia scoparia) [2]): 20%
- pest or weed control at 31 g/ha (Kochia (Kochia scoparia) [2]): 0%
- pest or weed control at 125 g/ha [3]: 50%
- pest or weed control at 31 g/ha [3]: 0%
- pest or weed control at 125 g/ha [4]: 0%
- pest or weed control at 31 g/ha [4]: 0%
- plant injury at 125 g/ha [5]: 0%
- plant injury at 31 g/ha [5]: 0%
- pest or weed control at 125 g/ha [6]: 30%
- pest or weed control at 31 g/ha [6]: 20%
- pest or weed control at 125 g/ha [7]: 20%
- pest or weed control at 31 g/ha [7]: 0%
- plant injury at 125 g/ha (corn (Zea mays)): 20%
- plant injury at 31 g/ha (corn (Zea mays)): 0%
- pest or weed control at 125 g/ha [8]: 0%
- pest or weed control at 31 g/ha [8]: 0%
- pest or weed control at 125 g/ha [9]: 0%
- pest or weed control at 31 g/ha [9]: 0%
- pest or weed control at 250 g/ha [10]: 80%
- pest or weed control at 250 g/ha (rice (Oryra sativa)): 20%
- pest or weed control at 250 g/ha [11]: 40%
- pest or weed control at 250 g/ha [12]: 0%
- pest or weed control at 31 g/ha [13]: 0%
- pest or weed control at 125 g/ha [13]: 20%
- pest or weed control at 31 g/ha (Kochia (Kochia scoparia) [14]): 0%
- pest or weed control at 125 g/ha (Kochia (Kochia scoparia) [14]): 0%
- pest or weed control at 31 g/ha [15]: 40%
- pest or weed control at 125 g/ha [15]: 90%
- pest or weed control at 31 g/ha [16]: 90%
- pest or weed control at 125 g/ha [16]: 90%
- pest or weed control at 31 g/ha [17]: 0%
- pest or weed control at 125 g/ha [17]: 0%
- pest or weed control at 31 g/ha [18]: 0%
- pest or weed control at 125 g/ha [18]: 0%

SMILES: Cc1cccc([C@H]2CN(C)C(=O)[C@@H]2C(=O)Nc2cccnc2F)c1 [Compound 1345]
- pest or weed control at 125 g/ha [1]: 0%
- pest or weed control at 31 g/ha [1]: 0%
- pest or weed control at 125 g/ha (Kochia (Kochia scoparia) [2]): 0%
- pest or weed control at 31 g/ha (Kochia (Kochia scoparia) [2]): 0%
- pest or weed control at 125 g/ha [3]: 90%
- pest or weed control at 31 g/ha [3]: 20%
- pest or weed control at 125 g/ha [4]: 20%
- pest or weed control at 31 g/ha [4]: 0%
- plant injury at 125 g/ha [5]: 0%
- plant injury at 31 g/ha [5]: 0%
- pest or weed control at 125 g/ha [6]: 90%
- pest or weed control at 31 g/ha [6]: 50%
- pest or weed control at 125 g/ha [7]: 20%
- pest or weed control at 31 g/ha [7]: 0%
- plant injury at 125 g/ha (corn (Zea mays)): 0%
- plant injury at 31 g/ha (corn (Zea mays)): 0%
- pest or weed control at 125 g/ha [8]: 0%
- pest or weed control at 31 g/ha [8]: 0%
- pest or weed control at 125 g/ha [9]: 0%
- pest or weed control at 31 g/ha [9]: 0%
- pest or weed control at 250 g/ha [10]: 95%
- pest or weed control at 250 g/ha (rice (Oryra sativa)): 0%
- pest or weed control at 250 g/ha [11]: 90%
- pest or weed control at 250 g/ha [12]: 0%
- pest or weed control at 31 g/ha [13]: 0%
- pest or weed control at 125 g/ha [13]: 0%
- pest or weed control at 31 g/ha (Kochia (Kochia scoparia) [14]): 0%
- pest or weed control at 125 g/ha (Kochia (Kochia scoparia) [14]): 40%
- pest or weed control at 31 g/ha [15]: 90%
- pest or weed control at 125 g/ha [15]: 100%
- pest or weed control at 31 g/ha [16]: 80%
- pest or weed control at 125 g/ha [16]: 100%
- pest or weed control at 31 g/ha [17]: 0%
- pest or weed control at 125 g/ha [17]: 60%
- pest or weed control at 31 g/ha [18]: 0%
- pest or weed control at 125 g/ha [18]: 0%
